“And” between values parts separate entries of the source, which are not always exact repeats. Equal entries are not always repeated. Structures can show the parent of a compound that is named as a salt.

The nature of data set [1]: Acute toxicity, intravenous, Litchfield and Wilcoxon. The following applies: mouse, in vivo, mice. Here is the method:
The acute toxicity of the compounds of the invention was determined intravenously in mice according to the method of Litchfield and Wilcoxon (J. Pharm. Exp. Therap. […], 96, 99).
The following results were obtained, expressed in the form of the LD50, compared with a benzoylindolizine derivative, in this case 2-ethyl-3-{4-[3-(di-n-butylamino)propyloxy]benzoyl}indolizine or butoprozine.

The test system of data set [2] is isolated rat aorta. Kind of data set: Calcium inhibitory properties: contractile response to potassium-induced depolarization on isolated rat aorta. Also noted: species or system isolated organ, male Wistar rats. The following applies: for activity at 1 µM: 10^-6 M; for activity at 0.001 µM: 10^-9 M; for % of the maximum contractional effect: 60 min. The gist of the method: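 Contraction is expressed as % of the pre-incubation maximum, measured after a 60 min compound exposure and a fresh K+ (100 mM KCl) depolarization. Tissue: aortic strips from male Wistar rats, 2 g tension, modified Krebs-bicarbonate, 37° C, CO2/O2 gassed.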

Data set [3] deals with isoprenaline-induced acceleration in heart rate (anti-β effect). Kind of data set: Antiadrenergic properties: anti-β effect (reduction of isoprenaline-induced tachycardia). It counts as in vivo. The following applies: dog; for inhibition in vivo at 1.3 mg/kg: 1.3 mg/kg i.v.; for inhibition in vivo at 0.13 mg/kg: 0.13 mg/kg i.v.; for inhibition in vivo at 3 mg/kg: 3 mg/kg i.v. Here is the method:
The object of this test is to determine the capacity of the compounds of the invention for reducing the increase in epinephrine-induced increase in blood-pressure (anti-α effect) and the isoprenaline-induced acceleration in heart rate (anti-β effect), in dogs previously anaesthatized with pentobarbital and atropinized. For each dog, the dose of epinephrine (between 3 and 10 μg/kg) which induced a reproducible increase in the blood-pressure of approximately 133×10^2 Pa and the dose of isoprenaline (1 to 2 μg/kg) which induced a reproducible increase in the heart rate of approximately 70 beats/min. were first determined. The dose of epinephrine and of isoprenaline, determined in this manner, were injected alternately every ten minutes and, after two successive reference responses had been obtained, an amount of the test compound was administered intravenously. The percentage reduction in the acceleration of the heart rate induced by the test compound compared with the reference tachycardia measured previously (approximately 70 beats) was recorded. In both cases, the results of the reduction in blood-pressure or in the heart rate have been expressed as follows: […]

Data set [4] deals with epinephrine-induced increase in blood-pressure (anti-α effect). The experiment in a line: Antiadrenergic properties: anti-α effect (reduction of epinephrine-induced hypertension). Also noted: key to anti-α effect: +: for a reduction < 50%; ++: for a reduction ≥ 50%; +++: for a reduction sub-total (almost complete reduction). The following applies: dog. Format: in vivo. As for the experimental part: The object of this test is to determine the capacity of the compounds of the invention for reducing the increase in epinephrine-induced increase in blood-pressure (anti-α effect) and the isoprenaline-induced acceleration in heart rate (anti-β effect), in dogs previously anaesthatized with pentobarbital and atropinized. For each dog, the dose of epinephrine (between 3 and 10 μg/kg) which induced a reproducible increase in the blood-pressure of approximately 133×10^2 Pa and the dose of isoprenaline (1 to 2 μg/kg) which induced a reproducible increase in the heart rate of approximately 70 beats/min. were first determined. The dose of epinephrine and of isoprenaline, determined in this manner, were injected alternately every ten minutes and, after two successive reference responses had been obtained, an amount of the test compound was administered intravenously. The percentage reduction in the hypertension induced by the test compound compared with the reference hypertension previously obtained (approximately 100 mm Hg) was recorded. In both cases, the results of the reduction in blood-pressure or in the heart rate have been expressed as follows: […]

Where [5] appears, read: Rattus norvegicus, 1 h, read-out: % of the maximum contractional effect.
[6] abbreviates: Rattus norvegicus, 1 h, 10^-7 M, read-out: % of the maximum contractional effect.
Where [7] appears, read: Rattus norvegicus, 1 h, 10^-8 M, read-out: % of the maximum contractional effect.
The mark [8] stands for this setting: Canis lupus familiaris, iv, 0.12 mg/kg i.v.
Setting [9] is: Canis lupus familiaris, iv, 0.52 mg/kg i.v.
Where [10] appears, read: Canis lupus familiaris, iv, 0.027 mg/kg i.v.

`CCCCN(CCCC)CCCOc1ccc(C(=O)c2c(CC)cc3ccccn23)cc1` [Butoprozine, 2-ethyl-3-{4-[3-(di-n-butylamino)propyloxy]benzoyl}indolizine, reference compound]: in data set [1], the LD50 was 23 mg/kg.

As for `CCCCN(CCCC)CCCOc1ccc(S(=O)(=O)c2c(C)cn3ccccc23)cc1.O=C(O)C(=O)O` [Ex. 6, 2-Methyl-1-{4-[3-(di-n-butylamino)propyloxy]benzenesulphonyl}indolizine oxalate], in data set [2] (setting [5]), the activity at 1 µM is 13.9%. The activity at 0.1 µM in data set [2] (setting [6]) is 69.1%. This molecule came in with an LD50 in data set [1] of 31 mg/kg.

Regarding `CCCc1oc2ccccc2c1S(=O)(=O)c1ccc(OCCCN(C)CCc2ccc(OC)c(OC)c2)cc1` [Ex. 67, 2-n-Propyl-3-[4-{3-[N-methyl-N-(3,4-dimethoxy-β-phenethyl)amino]propyloxy}benzenesulphonyl]benzofuran oxalate], the inhibition in vivo at 1.3 mg/kg in data set [3] (Canis lupus familiaris, iv) is below 50%. Besides, the anti-α effect entry in data set [4] (1.3 mg/kg i.v.) is “+++”. For the same molecule, the activity at 1 µM in data set [2] (setting [5]) is 9.3%. Moreover, in data set [2] (setting [6]), the activity at 0.1 µM amounted to 38.3%. In addition, in data set [2] (setting [7]), the activity at 0.01 µM worked out at 80.9%.

In data set [3] (Canis lupus familiaris, iv, 0.6 mg/kg i.v.), `CCCc1sc2ccccc2c1S(=O)(=O)c1ccc(OCCCN(C)CCc2ccc(OC)c(OC)c2)cc1` [Ex. 68, 2-n-Propyl-3-[4-{3-[N-methyl-N-(3,4-dimethoxy-β-phenethyl)amino]propyloxy}benzenesulphonyl]benzothiophene hemioxalate] registered an inhibition in vivo at 0.6 mg/kg of at least 50%. In addition, the anti-α effect result in data set [4] (0.6 mg/kg i.v.) is given as “+++”. In addition, in data set [2] (setting [5]), the activity at 1 µM worked out at 9.7%. Besides, the activity at 0.1 µM in data set [2] (setting [6]) was determined as 45.3%. Moreover, in data set [2] (setting [7]), the activity at 0.01 µM came to 68.9%.

Consider `CCCCc1oc2ccccc2c1S(=O)(=O)c1ccc(OCCCN(C)CCc2ccc(OC)c(OC)c2)cc1` [Ex. 69, 2-n-butyl-3-[4-{3-[N-methyl-N-(3,4-dimethoxy-β-phenethyl)amino]propyloxy}benzenesulphonyl]benzofuran hydrochloride], for which, in data set [3] (1.2 mg/kg i.v.), the anti-β effect result is reported as “+ +”. Moreover, the anti-α effect result in data set [4] (1.2 mg/kg i.v.) is “+++”. Also, in data set [2] (setting [5]), the activity at 1 µM was 36.8%. Besides, in data set [2] (setting [6]), the activity at 0.1 µM amounted to 59%. Moreover, the activity at 0.01 µM in data set [2] (setting [7]) stood at 76%.

On to `CCCCN(CCCC)CCCOc1ccc(S(=O)(=O)c2c(C(C)C)nn3ccccc23)cc1` [Ex. 70, 2-isopropyl-3-{4-[3-(di-n-butylamino)propyloxy]benzenesulphonyl}pyrazolo[1,5-a]pyridine oxalate], for which the results for the inhibition in vivo at 0.12 mg/kg in data set [3] (setting [8]) and in data set [4] (setting [8]) were below 50% and at least 50%, respectively. The activity at 1 µM in data set [2] (setting [5]) turned out to be 0%. In addition, in data set [2] (setting [6]), the activity at 0.1 µM was determined as 18.9%. Moreover, the activity at 0.01 µM in data set [2] (setting [7]) came to 83%.

As to `COc1ccc(CCN(C)CCCOc2ccc(S(=O)(=O)c3c(C(C)C)nn4ccccc34)cc2)cc1OC` [Ex. 71, 2-isopropyl-3-[4-{3-[N-methyl-N-(3,4-dimethoxy-β-phenethyl)amino]propyloxy}benzenesulphonyl]pyrazolo(1,5-a]pyridine oxalate], in data set [3] (Canis lupus familiaris, iv), the inhibition in vivo at 0.13 mg/kg was at least 50%. Moreover, the anti-α effect result in data set [4] (0.13 mg/kg i.v.) was “+++”. Further, in data set [2] (setting [5]), the activity at 1 µM was 0% and the activity at 0.001 µM was determined as 84.9%. The activity at 0.1 µM in data set [2] (setting [6]) is 15.1%. In addition, the activity at 0.01 µM in data set [2] (setting [7]) amounted to 67.1%.

With `CC(C)c1nn2ccccc2c1S(=O)(=O)c1ccc(OCCCNC(C)(C)C)cc1` [Ex. 72, 2-isopropyl-3-{4-[3-(tertiobutylamino)propyloxy]benzenesulphonyl}pyrazolo[1,5-a]pyridine oxalate], the results for the inhibition in vivo at 0.52 mg/kg in data set [3] (setting [9]) and in data set [4] (setting [9]) were below 50% and at least 50%, respectively. Moreover, the activity at 1 µM in data set [2] (setting [5]) is 13.2%. In addition, the activity at 0.1 µM in data set [2] (setting [6]) was 66.5%. The activity at 0.01 µM in data set [2] (setting [7]) was determined as 84%.

In data set [3] (Canis lupus familiaris, iv), `COc1ccc(CCN(C)CCCOc2ccc(S(=O)(=O)C3=C(C(C)C)OCC3)cc2)cc1OC` [Ex. 73, 2-isopropyl-3-[4-{3-[N-methyl-N-(3,4-dimethoxy-β-phenethyl)amino]propyloxy}benzenesulphonyl]-4,5-dihydro-furan oxalate] showed an inhibition in vivo at 3 mg/kg of at least 50%. The anti-α effect entry in data set [4] (3 mg/kg i.v.) was “+++”. Moreover, in data set [2] (setting [5]), the activity at 1 µM amounted to 8.2%. Besides, the activity at 0.1 µM in data set [2] (setting [6]) turned out to be 66.7%. For the same molecule, in data set [2] (setting [7]), the activity at 0.01 µM is 78.3%.

`CCCCN(CCCC)CCCOc1ccc(S(=O)(=O)c2cc3ccccc3nc2C(C)C)cc1.O=C(O)C(=O)O` [Ex. 74, 2-isopropyl-3-{4-[3-(di-n-butylamino)propyloxy]benzenesulphonyl}quinoline oxalate] returned an inhibition in vivo at 1.2 mg/kg in data set [3] (Canis lupus familiaris, iv, 1.2 mg/kg i.v.) below 50%. For the same molecule, the anti-α effect entry in data set [4] (1.2 mg/kg i.v.) was “+++”. Moreover, the activity at 1 µM in data set [2] (setting [5]) stood at 22.4%. In addition, the activity at 0.1 µM in data set [2] (setting [6]) was 67.3%.

With `COc1ccc(CCN(C)CCCOc2ccc(S(=O)(=O)c3cc4ccccc4nc3C(C)C)cc2)cc1OC` [Ex. 75, 2-isopropyl-3-[4-{3-[N-methyl-N-(3,4-dimethoxy-β-phenethyl)amino]propyloxy}benzenesulphonyl]quinoline oxalate], the inhibition in vivo at 1.3 mg/kg in data set [3] (Canis lupus familiaris, iv) was below 50%. Besides, in data set [4] (1.3 mg/kg i.v.), the anti-α effect entry is recorded as “+++”. The “% of the maximum contractional effect” value in data set [2] (10^-7 M, 0.1 µM) is 54% and 79.6%. Besides, in data set [2] (setting [7]), the activity at 0.01 µM turned out to be 89.7%.

Consider `COc1ccc(CCN(C)CCCOc2ccc(S(=O)(=O)c3c(C(C)C)cn4ncccc34)cc2)cc1OC` [Ex. 76, 5-[4-{3-[N-methyl-N-(3,4-dimethoxy-β-phenethyl)amino]propyloxy}benzenesulphonyl]-6-isopropyl-pyrrolo[1,2-b]pyridazine oxalate], for which the inhibition in vivo at 0.13 mg/kg in data set [3] (Canis lupus familiaris, iv) is below 50%. The anti-α effect entry in data set [4] (0.13 mg/kg i.v.) is reported as “+++”. Further, the activity at 0.1 µM in data set [2] (setting [6]) came out at 0%. In addition, the activity at 0.01 µM in data set [2] (setting [7]) amounted to 18.1%. In addition, the activity at 0.001 µM in data set [2] (setting [5]) was determined as 68.1%.

In turn, `COc1ccc(CCN(C)CCCOc2ccc(S(=O)(=O)c3ccoc3C(C)C)cc2)cc1OC` [Ex. 77, 2-isopropyl-3-[4-{3-[N-methyl-N-(3,4-dimethoxy-β-phenethyl)amino]propyloxy}benzenesulphonyl]furan oxalate] showed an inhibition in vivo at 3 mg/kg in data set [3] (Canis lupus familiaris, iv) of at least 50%. The anti-α effect entry in data set [4] (3 mg/kg i.v.) was “+++”. Moreover, in data set [2] (setting [6]), the activity at 0.1 µM came out at 43.2%. Also, the activity at 0.01 µM in data set [2] (setting [7]) was determined as 86%. For the same molecule, in data set [2] (setting [5]), the activity at 0.001 µM turned out to be 89.8%.

On to `COc1cc(CCNCCCOc2ccc(S(=O)(=O)c3c(C(C)C)cn4ccccc34)cc2)cc(OC)c1` [Ex. 133, 1-[4-{3-[N-(3,5-dimethoxy-β-phenethyl)amino]propyloxy}benzenesulphonyl]-2-isopropyl-indolizine acid oxalate], for which the inhibition in vivo at 0.027 mg/kg in data set [3] (setting [10]) was below 50%; in data set [4] (setting [10]), at least 50%. Also, in data set [2] (10^-8 M, 0.01 µM), the “% of the maximum contractional effect” value stood at 30.3%. Also, the activity at 0.1 µM in data set [2] (setting [6]) is 6.2%. In data set [2] (setting [7]), the activity at 0.01 µM came out at 30.5%. Besides, the activity at 0.001 µM in data set [2] (setting [5]) came to 73.4%.

`COc1cc(CCN(C)CCCOc2ccc(S(=O)(=O)c3c(C(C)C)cn4ccccc34)cc2)cc(OC)c1` [Ex. 145, 2-isopropyl-1[4-{3-[N-methyl-N-(3,5-dimethoxy-β-phenethyl)amino]propyloxy}benzenesulphonyl]indolizine acid oxalate]: in data set [3] (Canis lupus familiaris, iv, 0.033 mg/kg i.v.), the inhibition in vivo at 0.033 mg/kg was at least 50%. Also, the anti-α effect entry in data set [4] (0.033 mg/kg i.v.) is reported as “+++”. The activity at 0.01 µM in data set [2] (setting [7]) turned out to be 21%. Further, in data set [2] (setting [5]), the activity at 0.001 µM came to 57.7%. In addition, the activity at 0.0001 µM in data set [2] (Rattus norvegicus, 1 h, 10^-10 M, read-out: % of the maximum contractional effect) is 81%.

The values above are taken from US5147878A, “Aminoalkoxyphenyl derivatives, process of preparation and compositions containing the same” (Sanofi, priority 1986, dated 1992).
